Assay results as given in ChEMBL document CHEMBL3616448, “N-Hydroxyimides and hydroxypyrimidinones as inhibitors of the DNA repair complex ERCC1-XPF” (Bioorg Med Chem Lett, 2015).
The source made the active and inactive calls. The rule behind the calls is not given here.

Columns and labels:
Flap endonuclease 1 = Flap endonuclease 1 (Homo sapiens, UniProt P39748); assay: Inhibition of FEN1 (unknown origin)
[1] = target: T1, DNA excision repair protein ERCC-1/DNA repair endonuclease XPF (Homo sapiens, UniProt P07992+Q92889); assay: Inhibition of ERCC1-XPF (unknown origin) by high-throughput fluorescence based in-vitro endonuclease assay; type: protein-complex assay
T1 sequence (P07992 whole entry): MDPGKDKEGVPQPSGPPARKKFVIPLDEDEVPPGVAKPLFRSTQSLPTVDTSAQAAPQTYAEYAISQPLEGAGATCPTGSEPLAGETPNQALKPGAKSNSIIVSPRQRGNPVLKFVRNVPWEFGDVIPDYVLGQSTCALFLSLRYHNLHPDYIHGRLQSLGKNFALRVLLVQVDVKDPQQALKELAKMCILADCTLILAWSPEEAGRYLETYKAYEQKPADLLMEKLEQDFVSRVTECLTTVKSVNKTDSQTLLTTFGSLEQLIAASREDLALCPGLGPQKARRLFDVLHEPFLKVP
T1 sequence (Q92889 whole entry): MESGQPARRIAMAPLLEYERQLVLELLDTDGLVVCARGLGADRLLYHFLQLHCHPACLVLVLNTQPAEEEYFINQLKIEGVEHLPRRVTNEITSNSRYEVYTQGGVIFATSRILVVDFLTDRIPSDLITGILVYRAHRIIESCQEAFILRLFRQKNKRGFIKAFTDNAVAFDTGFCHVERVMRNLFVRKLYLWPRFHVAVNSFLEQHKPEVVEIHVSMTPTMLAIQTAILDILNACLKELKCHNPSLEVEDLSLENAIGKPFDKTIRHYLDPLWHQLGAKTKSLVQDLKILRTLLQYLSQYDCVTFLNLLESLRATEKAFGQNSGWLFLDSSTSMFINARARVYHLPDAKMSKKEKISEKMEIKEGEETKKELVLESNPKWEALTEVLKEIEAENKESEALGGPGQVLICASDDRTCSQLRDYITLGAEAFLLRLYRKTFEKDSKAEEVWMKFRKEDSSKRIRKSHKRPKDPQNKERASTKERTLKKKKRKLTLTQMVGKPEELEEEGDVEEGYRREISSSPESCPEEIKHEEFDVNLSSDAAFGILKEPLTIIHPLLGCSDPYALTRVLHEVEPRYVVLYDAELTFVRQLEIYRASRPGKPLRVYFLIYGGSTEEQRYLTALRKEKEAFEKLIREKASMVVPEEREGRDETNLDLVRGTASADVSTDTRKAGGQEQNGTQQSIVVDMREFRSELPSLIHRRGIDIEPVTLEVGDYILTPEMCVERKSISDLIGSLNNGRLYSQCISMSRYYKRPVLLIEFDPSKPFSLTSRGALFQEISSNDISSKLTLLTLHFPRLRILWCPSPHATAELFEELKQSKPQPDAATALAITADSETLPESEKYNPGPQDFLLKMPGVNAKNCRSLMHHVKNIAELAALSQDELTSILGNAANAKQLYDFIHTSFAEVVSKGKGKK

Deoxyribonuclease-1 = target: T2, Deoxyribonuclease-1 (Homo sapiens, UniProt P24855); assay: Inhibition of DNAse1 (unknown origin)
T2 sequence (P24855 whole entry): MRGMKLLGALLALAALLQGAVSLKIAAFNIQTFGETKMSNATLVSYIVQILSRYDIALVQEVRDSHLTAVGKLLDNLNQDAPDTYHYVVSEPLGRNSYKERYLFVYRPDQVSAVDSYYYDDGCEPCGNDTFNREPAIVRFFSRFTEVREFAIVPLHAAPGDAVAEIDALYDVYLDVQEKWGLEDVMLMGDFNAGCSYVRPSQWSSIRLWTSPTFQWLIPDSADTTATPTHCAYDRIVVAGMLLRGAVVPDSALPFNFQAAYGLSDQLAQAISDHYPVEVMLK

HepG2 = assay: Cytotoxicity against human HepG2 cells; type: cell-based
[2] = Half life in human liver microsomes; type: ADME
[3] = Lipophilicity, log D of the compound; type: physicochemical; details: octanol/water
[4] = Apparent permeability by PAMPA method; type: physicochemical
[5] = Half life in mouse liver microsomes; type: ADME
[6] = target: T3, DNA excision repair protein ERCC-1/DNA repair endonuclease XPF (Homo sapiens) (UniProt P07992+Q92889); assay: Inhibition of ERCC1-XPF in human A375 cells assessed as induction of delay in DNA repair by measuring cumulative frequency of cells up to 10 uM pre-incubated for 1 hr before cisplatin exposure for 1 hr by immunohistochemistry based gammaH2AX foci assay; type: cell-based; details: A-375
[7] = target: T1, DNA excision repair protein ERCC-1/DNA repair endonuclease XPF; assay: Binding affinity to ERCC1-XPF (unknown origin) by SPR assay; type: protein-complex assay
[8] = target: T3, DNA excision repair protein ERCC-1/DNA repair endonuclease XPF (Homo sapiens); assay: Inhibition of ERCC1-XPF in human A375 cells assessed as reduction in direct nucleotide excision repair of UV-damaged pEGFP plasmid up to 10 uM incubated for 24 hrs by recombinant GFP reporter assay; type: cell-based; details: A-375
A-375 = assay: Cytotoxicity against human A375 cells assessed as reduction in cell number at 0.1 to 3 uM incubated for 5 days; type: cell-based; details: a-375, 120 h
[9] = target: T3, DNA excision repair protein ERCC-1/DNA repair endonuclease XPF (Homo sapiens); assay: Inhibition of ERCC1-XPF in human A375 cells assessed as potentiation of cisplatin-induced cytotoxicity at 0.1 to 3 uM incubated for 5 days; type: cell-based; details: A-375
[10] = target: T3, DNA excision repair protein ERCC-1/DNA repair endonuclease XPF (Homo sapiens); assay: Binding affinity to ERCC1-XPF (unknown origin) assessed as melting temperature by thermal shift assay; type: protein-complex assay

Sequence of Flap endonuclease 1 (P39748 whole entry): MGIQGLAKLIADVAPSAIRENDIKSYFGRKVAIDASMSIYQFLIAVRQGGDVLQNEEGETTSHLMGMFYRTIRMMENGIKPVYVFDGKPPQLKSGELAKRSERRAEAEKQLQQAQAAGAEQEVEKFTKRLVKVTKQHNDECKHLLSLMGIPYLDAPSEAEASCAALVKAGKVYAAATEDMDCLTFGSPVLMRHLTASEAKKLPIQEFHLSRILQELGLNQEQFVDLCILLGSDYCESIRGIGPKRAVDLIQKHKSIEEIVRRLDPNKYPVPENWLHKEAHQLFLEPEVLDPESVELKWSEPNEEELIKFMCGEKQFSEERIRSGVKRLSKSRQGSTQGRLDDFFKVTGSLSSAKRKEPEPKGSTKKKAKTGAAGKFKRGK

SMILES	IC50 (Flap endonuclease 1) [µM]	IC50 [1] [µM]	IC50 (Deoxyribonuclease-1) [µM]	further results
O=c1[nH]c2cc(N3CCCC3)ccc2c(=O)n1O	1.1	9.1	27.9	
CC(C)CCNC(=O)c1nc(C2CCN(C)CC2)[nH]c(=O)c1O	> 100	6.9		
CC(=O)Nc1ccc2[nH]c(=O)n(O)c(=O)c2c1	2	6.6	87	
O=C(c1nc(-c2cccs2)[nH]c(=O)c1O)N1CCCC1	13.7	4.6		
O=c1[nH]c2ccccc2c(=O)n1O	0.3	18.1	> 100	
COC(=O)c1nc(-c2ccccc2)[nH]c(=O)c1O	53.4	16.4	> 100	
CC(=O)Nc1ccc2c(=O)n(O)c(=O)[nH]c2c1	2.1	6.4	> 100	
COC(=O)c1nc(-c2cccs2)nc(O)c1O	10.1	27.3	> 100	
CC(C)CCNC(=O)c1nc(C2CCCCN2)[nH]c(=O)c1O (configuration not stated)	> 100	6.3		
Cn1c(-c2cccs2)nc(C(=O)O)c(O)c1=O	88.9	48.8	> 100	
Cn1c(=O)n(O)c(=O)c2ccccc21	2.1	96.2	> 100	
COc1nc(-c2cccs2)nc(C(=O)O)c1O		> 100		
O=C(NCc1ccc(F)cc1)c1nc(-c2cccs2)nc(O)c1O	2.1	4.2	> 100	
O=C(O)c1nc(-c2cccs2)nc(O)c1O	10.4	2.9	> 100	
O=c1[nH]c2cc(Nc3ccccc3)ccc2c(=O)n1O	0.23	3.9	30.2	
O=c1[nH]c2sccc2c(=O)n1O	0.009	3.9	> 100	
O=c1c2ccsc2n(Cc2ccccc2)c(=O)n1O	0.68	80.4	> 100	
CC(=O)Nc1cccc2c(=O)n(O)c(=O)[nH]c12	0.038	6.1	> 100	
O=C(O)c1nc(-c2ccccc2)nc(O)c1O	16.4	3.9	> 100	
CC(C)CCNC(=O)c1nc(C2CCCCN2C)[nH]c(=O)c1O (configuration not stated)	> 100	8.4		
O=C1c2cccc3cccc(c23)C(=O)N1O	0.3	30		
CC(C)CCNC(=O)c1nc(C2CCCN(C)C2)[nH]c(=O)c1O (configuration not stated)	> 100	25.3		
O=C1c2cccc3c(Cl)ccc(c23)C(=O)N1O	0.7	12		
CCCNC(=O)c1nc(-c2cccs2)[nH]c(=O)c1O	4.2	2.7	> 100	

The next compounds have a lower IC50 [1] than those just listed; values first:

IC50 (Flap endonuclease 1) [µM]	IC50 [1] [µM]	IC50 (Deoxyribonuclease-1) [µM]	SMILES	further results
38.1	0.8		CC(C)CCNC(=O)c1nc(-c2ccc(CN3CCOCC3)cc2)[nH]c(=O)c1O	
0.003	1.8	> 100	O=c1[nH]c2c(-c3ccccc3)csc2c(=O)n1O	
23.3	1	> 100	NC(=O)c1nc(-c2cccs2)nc(O)c1O	Activity (HepG2): > 10 µM; half-life [2]: 139 min; logD [3]: -0.4; Papp [4]: 0.7 ×10⁻⁶ cm/s; half-life [5]: 150 min
0.057	1.5	> 100	Cc1ccc(-c2coc3c(=O)n(O)c(=O)[nH]c23)cc1	
12	0.6	67.6	CNC(=O)c1nc(-c2cccs2)[nH]c(=O)c1O	Activity (HepG2): > 10 µM; inhibition [6]: inactive; Kd [7]: 4 µM; inhibition [8]: inactive; Activity (A-375): Non-toxic; half-life [2]: 181 min; inhibition [9]: inactive; ΔTm [10]: 4 °C; logD [3]: 0.5; Papp [4]: 3.1 ×10⁻⁶ cm/s; half-life [5]: > 400 min
0.63	1.5	> 100	O=c1cc(-c2ccccc2)[nH]c(=O)n1O	
8.6	0.7	> 100	O=C(Nc1cccnc1)c1nc(-c2cccs2)[nH]c(=O)c1O	
4	0.7	> 100	O=C(NCCO)c1nc(-c2cccs2)[nH]c(=O)c1O	
71.3	1.7		CC(C)CCNC(=O)c1nc(-c2ccc(CN(C)C)cc2)[nH]c(=O)c1O	
10.5	0.8		O=C(Nc1ccc(F)cc1)c1nc(-c2cccs2)[nH]c(=O)c1O	
1.3	0.6	> 100	CCC(C)NC(=O)c1nc(-c2cccs2)[nH]c(=O)c1O (configuration not stated)	Activity (HepG2): > 10 µM; half-life [2]: > 400 min; logD [3]: 2.1; Papp [4]: 9.7 ×10⁻⁶ cm/s; half-life [5]: > 400 min
3.5	0.5		CC(C)CCNC(=O)c1nc(-c2cccs2)[nH]c(=O)c1O	
4.1	1	58.9	O=C(NCCN1CCOCC1)c1nc(-c2cccs2)[nH]c(=O)c1O	
5	0.8	62.6	CC(=O)NCCNC(=O)c1nc(-c2cccs2)[nH]c(=O)c1O	
